Results reported in EPA's CvTdb concentration-time database.

System: Rat
Assay: concentration in plasma after dosing

CC(C)[C@]12CC(=O)[C@H](C)[C@H]1C2 [alpha-Thujone]
concentration in plasma [ng/mL], dosed: alpha-Thujone, oral
Conditions	0.5 h	1.5 h	2 min	3 h	5 min	6 h	10 min	12 h
25 mg/kg, Female, Harlan Sprague Dawley	189	–	29.7	104	–	84.7	–	3.31
25 mg/kg, Male, Harlan Sprague Dawley	407	156	45.2	134	146	119	323	16.4
50 mg/kg, Female, F344	–	–	–	–	1480	146	1200	–
50 mg/kg, Female, Harlan Sprague Dawley	474	491	109	214	427	209	547	24.3
50 mg/kg, Male, F344	–	294	–	–	–	–	2200	–
50 mg/kg, Male, Harlan Sprague Dawley	710	116	11.9	255	–	174	2050	11.6

concentration in plasma [ng/mL], dosed: 76231-76-0, 3.0 mg/kg, iv, F344
Conditions	2 h	2.5 h	12 h
Female	4.41	2.79	–
Male	–	–	3.95

c1ccncc1 [Pyridine]
concentration in plasma [ng/mL], dosed: Pyridine
Conditions	iv	oral
0.05 h, 5 mg/kg, Male, F344	5520	–
0.25 h, 5 mg/kg, Male, F344	2430	–
0.25 h, 10 mg/kg, Male, F344	4140	–
0.5 h, 5 mg/kg, Male, F344	3550	2630
0.5 h, 25 mg/kg, Male, F344	–	16500
1 h, 5 mg/kg, Male, F344	–	2900
1 h, 25 mg/kg, Female, Harlan Sprague-Dawley	–	18800
2 h, 5 mg/kg, Male, F344	2390	2920
2 h, 10 mg/kg, Male, F344	185	–
2 h, 25 mg/kg, Female, Harlan Sprague-Dawley	–	15700
2 min, 10 mg/kg, Male, F344	4390	716
4 h, 5 mg/kg, Male, F344	2090	2610
4 h, 25 mg/kg, Male, F344	–	15000
5 min, 5 mg/kg, Male, F344	–	1700
5 min, 10 mg/kg, Male, F344	2280	–
5 min, 25 mg/kg, Male, F344	–	5570
6 h, 5 mg/kg, Male, F344	1640	1550
6 h, 25 mg/kg, Male, F344	–	15300
8 h, 5 mg/kg, Male, F344	1620	1070
8 h, 25 mg/kg, Female, Harlan Sprague-Dawley	–	15400
9 h, 5 mg/kg, Male, F344	–	1280
10 min, 10 mg/kg, Male, F344	–	3820
11 h, 5 mg/kg, Male, F344	–	659
14 h, 25 mg/kg, Female, Harlan Sprague-Dawley	–	10000
20 h, 25 mg/kg, Male, F344	–	2910
20 min, 10 mg/kg, Female, Harlan Sprague-Dawley	–	2720
20 min, 10 mg/kg, Male, F344	3160	–
24 h, 25 mg/kg, Male, F344	–	1640
40 h, 100 mg/kg, Male, F344	–	11600
40 min, 10 mg/kg, Female, Harlan Sprague-Dawley	–	2560
50 min, 10 mg/kg, Male, F344	3220	–

C=CCc1ccc(OC)c(OC)c1 [Methyleugenol]
concentration in plasma [ng/mL], dosed: Methyleugenol, 37 mg/kg
Conditions	Female	Male
0.25 h, iv, F344	7960	7180
0.5 h, iv, F344	2470	2440
0.5 h, oral, F344/N	27.3	282
0.75 h, iv, F344	1100	3230
1 h, oral, F344/N	–	243
1.5 h, iv, F344	684	610
1.5 h, oral, F344/N	–	39.6
2 h, oral, F344/N	–	17.4
2 min, iv, F344	57800	32200
2 min, oral, F344/N	29.2	35.1
3 h, iv, F344	215	232
3 h, oral, F344/N	–	12.4
4 h, oral, F344/N	–	17.8
5 h, oral, F344/N	–	15.6
5 min, iv, F344	27400	26700
5 min, oral, F344/N	108	81.2
6 h, iv, F344	–	175
8 h, oral, F344/N	17.8	6.71
10 min, oral, F344/N	345	369
20 min, oral, F344/N	267	233

CCC1(c2ccccc2)C(=O)NCNC1=O [Primidone]
concentration in plasma [ng/mL], dosed: Primidone, oral
Conditions	0.25 h	0.5 h	1.5 h	3 h	6 h	9 h	12 h	18 h	22 h
30 mg/kg, Female, F344	18100	–	23900	24900	11900	5700	2200	500	–
30 mg/kg, Male, F344	8900	–	10000	6700	500	–	–	–	–
80 mg/kg, Female, F344	16900	40000	48800	75900	36400	23400	12600	3600	400
80 mg/kg, Female, Harlan Sprague-Dawley	9900	27200	–	–	–	–	1500	–	–
80 mg/kg, Male, F344	–	–	34700	37100	14000	4000	–	–	–
130 mg/kg, Female, F344	–	19600	78900	53300	24600	53800	5500	–	100
130 mg/kg, Female, Harlan Sprague-Dawley	–	–	51900	–	–	–	–	–	–
130 mg/kg, Male, F344	–	–	51500	–	22800	9000	–	–	–
130 mg/kg, Male, Harlan Sprague Dawley	–	55100	–	100000	–	–	22300	–	–

O=C(c1ccccc1)c1ccc(O)cc1O [2,4-Dihydroxybenzophenone]
concentration in plasma [ng/mL], dosed: 2-Hydroxy-4-methoxybenzophenone, oral, F344
Conditions	0.25 h	0.5 h	2.5 min	3 h	4 h	5 h	6 h	10 h	10 min	12 h
100 mg/kg, Female	174	145	64.3	82.3	54.2	60.3	–	–	200	–
100 mg/kg, Male	52.2	114	–	38.2	65.6	55.8	–	–	31	–
250 mg/kg, Female	410	658	–	166	157	–	–	89.8	57.2	–
250 mg/kg, Male	109	218	–	114	92.3	–	–	91.7	39.4	–
500 mg/kg, Female	287	688	–	–	296	–	–	242	178	185
500 mg/kg, Male	180	192	–	–	233	–	171	–	2430	246

O=C(O)COc1ccc(Cl)cc1Cl [2,4-Dichlorophenoxyacetic acid]
dosed: 2,4-Dichlorophenoxyacetic acid, Male, Sprague-Dawley
Conditions	concentration in plasma [ng/mL]
0.25 h, 2.0 mg/kg, iv	12200
0.25 h, 7.0 mg/kg, oral	9670
0.5 h, 2.0 mg/kg, iv	7630
0.5 h, 7.0 mg/kg, oral	4670
0.75 h, 2.0 mg/kg, iv	4750
2 h, 2.0 mg/kg, iv	376
2 h, 7.0 mg/kg, oral	6510
2.5 h, 2.0 mg/kg, iv	2040
2.5 min, 2.0 mg/kg, iv	24800
2.5 min, 7.0 mg/kg, oral	9340
3 h, 2.0 mg/kg, iv	863
3 h, 7.0 mg/kg, oral	3570
3.5 h, 2.0 mg/kg, iv	858
4 h, 2.0 mg/kg, iv	482
4 h, 7.0 mg/kg, oral	7740
5 h, 7.0 mg/kg, oral	4720
6 h, 7.0 mg/kg, oral	472
10 min, 2.0 mg/kg, iv	14100
10 min, 7.0 mg/kg, oral	12500

O=S(=O)([O-])C(F)(F)C(F)(F)C(F)(F)C(F)(F)C(F)(F)C(F)(F)F.[K+] [Perfluorohexane-1-sulphonic acid – potassium salt]
concentration in plasma [ng/mL], dosed: Perfluorohexane-1-sulphonic acid – potassium salt, oral, Male, F344
Conditions	0.25 h	1 h	3 h	6 h	12 h	24 h	192 h	528 h	864 h	1200 h
4 mg/kg	9900	23300	23900	31000	30800	27400	16200	11300	2510	7070
16 mg/kg	–	73500	–	–	–	–	–	–	–	–
